# In ChEMBL document CHEMBL1143950, “Antifungal and cytotoxic activities of some N-substituted aniline derivatives bearing a hetaryl fragment” (Bioorg Med Chem, 2008):
# System: Candida albicans
# Assay: Antifungal activity against Candida albicans ATCC 10231 by micro-broth dilution method
# Type: functional
row,SMILES,MIC
1,Ic1ccc(NCc2ccncc2)cc1,50 µg/mL
2,Clc1ccc(NCc2ccco2)cc1Cl,62.5 µg/mL
3,O=[N+]([O-])c1cccc(NCc2ccncc2)c1,100 µg/mL
4,Cc1ccc(NCc2ccccn2)cc1,> 250 µg/mL
5,c1ccc(NCc2ccoc2)cc1,250 µg/mL

# System: Cryptococcus neoformans
# Assay: Antifungal activity against Cryptococcus neoformans IM 972751 by microbroth dilution method
# Type: functional
row,SMILES,MIC
1,OC(Cn1cncn1)(Cn1cncn1)c1ccc(F)cc1F [FLUCONAZOLE],31.2 µg/mL
2,Ic1ccc(NCc2ccncc2)cc1,50 µg/mL
3,CCC(C)n1ncn(-c2ccc(N3CCN(c4ccc(OCC5COC(Cn6cncn6)(c6ccc(Cl)cc6Cl)O5)cc4)CC3)cc2)c1=O (centres undefined) [ITRACONAZOLE],0.25 µg/mL
4,Clc1ccc(NCc2ccco2)cc1Cl,100 µg/mL
5,Nc1nc(=O)[nH]cc1F [FLUCYTOSINE],7.8 µg/mL
6,C[C@@H](c1ncncc1F)[C@](O)(Cn1cncn1)c1ccc(F)cc1F [VORICONAZOLE],0.25 µg/mL

# System: NCI-H460
# Assay: Cytotoxicity against human H460 cells by SRB assay
# Type: functional, cell-based
row,SMILES,IC50
1,Ic1ccc(NCc2ccncc2)cc1,> 10 µg/mL
2,Clc1ccc(NCc2ccco2)cc1Cl,8.7 µg/mL
3,O=[N+]([O-])c1cccc(NCc2ccncc2)c1,> 10 µg/mL
4,COc1cccc2c1C(=O)c1c(O)c3c(c(O)c1C2=O)C[C@@](O)(C(=O)CO)C[C@@H]3O[C@H]1C[C@H](N)[C@H](O)[C@H](C)O1 [DOXORUBICIN],0.18 µg/mL

# System: MCF7
# Assay: Cytotoxicity against human MCF7 cells by SRB assay
# Type: functional, cell-based
row,SMILES,IC50
1,Ic1ccc(NCc2ccncc2)cc1,> 10 µg/mL
2,Clc1ccc(NCc2ccco2)cc1Cl,8 µg/mL
3,O=[N+]([O-])c1cccc(NCc2ccncc2)c1,> 10 µg/mL

# System: Aspergillus fumigatus
# Assay: Antifungal activity against Aspergillus fumigatus ATCC 26934 by micro-broth dilution method
# Type: functional
row,SMILES,MIC
1,Ic1ccc(NCc2ccncc2)cc1,50 µg/mL
2,Clc1ccc(NCc2ccco2)cc1Cl,50 µg/mL
3,O=[N+]([O-])c1cccc(NCc2ccncc2)c1,100 µg/mL
4,Cc1ccc(NCc2ccccn2)cc1,> 250 µg/mL
5,c1ccc(NCc2ccoc2)cc1,250 µg/mL

# System: Candida tropicalis
# Assay: Antifungal activity against Candida tropicalis C131 by micro-broth dilution method
# Type: functional
row,SMILES,MIC
1,Ic1ccc(NCc2ccncc2)cc1,50 µg/mL
2,Clc1ccc(NCc2ccco2)cc1Cl,62.5 µg/mL
3,O=[N+]([O-])c1cccc(NCc2ccncc2)c1,100 µg/mL
4,Cc1ccc(NCc2ccccn2)cc1,> 250 µg/mL
5,c1ccc(NCc2ccoc2)cc1,250 µg/mL

# System: Cryptococcus neoformans
# Assay: Antifungal activity against Cryptococcus neoformans IM 983036 by micro-broth dilution method
# Type: functional
row,SMILES,MIC
1,OC(Cn1cncn1)(Cn1cncn1)c1ccc(F)cc1F [FLUCONAZOLE],15.6 µg/mL
2,Ic1ccc(NCc2ccncc2)cc1,50 µg/mL
3,CCC(C)n1ncn(-c2ccc(N3CCN(c4ccc(OCC5COC(Cn6cncn6)(c6ccc(Cl)cc6Cl)O5)cc4)CC3)cc2)c1=O (centres undefined) [ITRACONAZOLE],< 0.015 µg/mL
4,Clc1ccc(NCc2ccco2)cc1Cl,25 µg/mL
5,C[C@@H](c1ncncc1F)[C@](O)(Cn1cncn1)c1ccc(F)cc1F [VORICONAZOLE],< 0.015 µg/mL

# System: Aspergillus niger
# Assay: Antifungal activity against Aspergillus niger ATCC 9029 by micro-broth dilution method
# Type: functional
row,SMILES,MIC
1,Ic1ccc(NCc2ccncc2)cc1,50 µg/mL
2,Clc1ccc(NCc2ccco2)cc1Cl,62.5 µg/mL
3,O=[N+]([O-])c1cccc(NCc2ccncc2)c1,100 µg/mL
4,Cc1ccc(NCc2ccccn2)cc1,> 250 µg/mL
5,c1ccc(NCc2ccoc2)cc1,250 µg/mL

# System: Nannizzia gypsea
# Assay: Antifungal activity against Microsporum gypseum C115 by microbroth dilution method
# Type: functional
row,SMILES,MIC
1,Ic1ccc(NCc2ccncc2)cc1,12.5 µg/mL
2,Clc1ccc(NCc2ccco2)cc1Cl,6.25 µg/mL
3,O=[N+]([O-])c1cccc(NCc2ccncc2)c1,12.5 µg/mL
4,Cc1ccc(NCc2ccccn2)cc1,50 µg/mL
5,c1ccc(NCc2ccoc2)cc1,250 µg/mL

# System: Cryptococcus neoformans
# Assay: Antifungal activity against Cryptococcus neoformans IM 00319 by microbroth dilution method
# Type: functional
row,SMILES,MIC
1,OC(Cn1cncn1)(Cn1cncn1)c1ccc(F)cc1F [FLUCONAZOLE],1.9 µg/mL
2,Ic1ccc(NCc2ccncc2)cc1,50 µg/mL
3,CCC(C)n1ncn(-c2ccc(N3CCN(c4ccc(OCC5COC(Cn6cncn6)(c6ccc(Cl)cc6Cl)O5)cc4)CC3)cc2)c1=O (centres undefined) [ITRACONAZOLE],< 0.015 µg/mL
4,Clc1ccc(NCc2ccco2)cc1Cl,100 µg/mL
5,Nc1nc(=O)[nH]cc1F [FLUCYTOSINE],15.6 µg/mL
6,C[C@@H](c1ncncc1F)[C@](O)(Cn1cncn1)c1ccc(F)cc1F [VORICONAZOLE],0.03 µg/mL

# System: SF-268
# Assay: Cytotoxicity against human SF268 cells by SRB assay
# Type: functional, cell-based
row,SMILES,IC50
1,Ic1ccc(NCc2ccncc2)cc1,> 10 µg/mL
2,Clc1ccc(NCc2ccco2)cc1Cl,8.2 µg/mL
3,O=[N+]([O-])c1cccc(NCc2ccncc2)c1,< 10 µg/mL
4,COc1cccc2c1C(=O)c1c(O)c3c(c(O)c1C2=O)C[C@@](O)(C(=O)CO)C[C@@H]3O[C@H]1C[C@H](N)[C@H](O)[C@H](C)O1 [DOXORUBICIN],0.14 µg/mL

# System: Cryptococcus neoformans
# Assay: Antifungal activity against Cryptococcus neoformans IM 031631 by micro-broth dilution method
# Type: functional
row,SMILES,MIC
1,OC(Cn1cncn1)(Cn1cncn1)c1ccc(F)cc1F [FLUCONAZOLE],31.2 µg/mL
2,Ic1ccc(NCc2ccncc2)cc1,50 µg/mL
3,CCC(C)n1ncn(-c2ccc(N3CCN(c4ccc(OCC5COC(Cn6cncn6)(c6ccc(Cl)cc6Cl)O5)cc4)CC3)cc2)c1=O (centres undefined) [ITRACONAZOLE],0.5 µg/mL
4,Clc1ccc(NCc2ccco2)cc1Cl,100 µg/mL
5,Nc1nc(=O)[nH]cc1F [FLUCYTOSINE],7.8 µg/mL
6,C[C@@H](c1ncncc1F)[C@](O)(Cn1cncn1)c1ccc(F)cc1F [VORICONAZOLE],0.5 µg/mL

# System: Cryptococcus neoformans
# Assay: Antifungal activity against Cryptococcus neoformans ATCC 32264 by microbroth dilution method
# Type: functional
row,SMILES,MIC
1,Ic1ccc(NCc2ccncc2)cc1,25 µg/mL
2,Clc1ccc(NCc2ccco2)cc1Cl,25 µg/mL
3,O=[N+]([O-])c1cccc(NCc2ccncc2)c1,50 µg/mL
4,Cc1ccc(NCc2ccccn2)cc1,> 250 µg/mL
5,c1ccc(NCc2ccoc2)cc1,125 µg/mL

# System: Cryptococcus neoformans
# Assay: Antifungal activity against Cryptococcus neoformans IM 983040 by micro-broth dilution method
# Type: functional
row,SMILES,MIC
1,OC(Cn1cncn1)(Cn1cncn1)c1ccc(F)cc1F [FLUCONAZOLE],7.8 µg/mL
2,Ic1ccc(NCc2ccncc2)cc1,100 µg/mL
3,CCC(C)n1ncn(-c2ccc(N3CCN(c4ccc(OCC5COC(Cn6cncn6)(c6ccc(Cl)cc6Cl)O5)cc4)CC3)cc2)c1=O (centres undefined) [ITRACONAZOLE],< 0.015 µg/mL
4,Clc1ccc(NCc2ccco2)cc1Cl,100 µg/mL
5,Nc1nc(=O)[nH]cc1F [FLUCYTOSINE],7.8 µg/mL
6,C[C@@H](c1ncncc1F)[C@](O)(Cn1cncn1)c1ccc(F)cc1F [VORICONAZOLE],< 0.015 µg/mL

# System: Trichophyton mentagrophytes
# Assay: Antifungal activity against Trichophyton mentagrophytes ATCC 9972 by micro-broth dilution method
# Type: functional
row,SMILES,MIC
1,Ic1ccc(NCc2ccncc2)cc1,12.5 µg/mL
2,Clc1ccc(NCc2ccco2)cc1Cl,12.5 µg/mL
3,O=[N+]([O-])c1cccc(NCc2ccncc2)c1,12.5 µg/mL
4,Cc1ccc(NCc2ccccn2)cc1,50 µg/mL
5,c1ccc(NCc2ccoc2)cc1,125 µg/mL

# System: Cryptococcus neoformans
# Assay: Antifungal activity against Cryptococcus neoformans IM 972724 by micro-broth dilution method
# Type: functional
row,SMILES,MIC
1,OC(Cn1cncn1)(Cn1cncn1)c1ccc(F)cc1F [FLUCONAZOLE],3.9 µg/mL
2,Ic1ccc(NCc2ccncc2)cc1,25 µg/mL
3,CCC(C)n1ncn(-c2ccc(N3CCN(c4ccc(OCC5COC(Cn6cncn6)(c6ccc(Cl)cc6Cl)O5)cc4)CC3)cc2)c1=O (centres undefined) [ITRACONAZOLE],0.25 µg/mL
4,Clc1ccc(NCc2ccco2)cc1Cl,25 µg/mL
5,Nc1nc(=O)[nH]cc1F [FLUCYTOSINE],3.9 µg/mL
6,C[C@@H](c1ncncc1F)[C@](O)(Cn1cncn1)c1ccc(F)cc1F [VORICONAZOLE],< 0.015 µg/mL

# System: Saccharomyces cerevisiae
# Assay: Antifungal activity against Saccharomyces cerevisiae ATCC 9763 by microbroth dilution method
# Type: functional
row,SMILES,MIC
1,Ic1ccc(NCc2ccncc2)cc1,50 µg/mL
2,Clc1ccc(NCc2ccco2)cc1Cl,50 µg/mL
3,O=[N+]([O-])c1cccc(NCc2ccncc2)c1,50 µg/mL
4,Cc1ccc(NCc2ccccn2)cc1,> 250 µg/mL
5,c1ccc(NCc2ccoc2)cc1,250 µg/mL

# System: Cryptococcus neoformans
# Assay: Antifungal activity against Cryptococcus neoformans IM 031706 by micro-broth dilution method
# Type: functional
row,SMILES,MIC
1,OC(Cn1cncn1)(Cn1cncn1)c1ccc(F)cc1F [FLUCONAZOLE],3.9 µg/mL
2,Ic1ccc(NCc2ccncc2)cc1,100 µg/mL
3,CCC(C)n1ncn(-c2ccc(N3CCN(c4ccc(OCC5COC(Cn6cncn6)(c6ccc(Cl)cc6Cl)O5)cc4)CC3)cc2)c1=O (centres undefined) [ITRACONAZOLE],< 0.015 µg/mL
4,Clc1ccc(NCc2ccco2)cc1Cl,100 µg/mL
5,Nc1nc(=O)[nH]cc1F [FLUCYTOSINE],3.9 µg/mL
6,C[C@@H](c1ncncc1F)[C@](O)(Cn1cncn1)c1ccc(F)cc1F [VORICONAZOLE],0.015 µg/mL

# System: Trichophyton rubrum
# Assay: Antifungal activity against Trichophyton rubrum C113 by microbroth dilution method
# Type: functional
row,SMILES,MIC
1,Ic1ccc(NCc2ccncc2)cc1,6.25 µg/mL
2,Clc1ccc(NCc2ccco2)cc1Cl,3.12 µg/mL
3,O=[N+]([O-])c1cccc(NCc2ccncc2)c1,6.25 µg/mL
4,Cc1ccc(NCc2ccccn2)cc1,50 µg/mL
5,c1ccc(NCc2ccoc2)cc1,125 µg/mL

# System: Aspergillus flavus
# Assay: Antifungal activity against Aspergillus flavus ATCC 9170 by micro-broth dilution method
# Type: functional
row,SMILES,MIC
1,Ic1ccc(NCc2ccncc2)cc1,100 µg/mL
2,Clc1ccc(NCc2ccco2)cc1Cl,50 µg/mL
3,O=[N+]([O-])c1cccc(NCc2ccncc2)c1,200 µg/mL
4,Cc1ccc(NCc2ccccn2)cc1,> 250 µg/mL
5,c1ccc(NCc2ccoc2)cc1,250 µg/mL

# System: Cryptococcus neoformans
# Assay: Antifungal activity against Cryptococcus neoformans IM 042074 by micro-broth dilution method
# Type: functional
row,SMILES,MIC
1,OC(Cn1cncn1)(Cn1cncn1)c1ccc(F)cc1F [FLUCONAZOLE],3.9 µg/mL
2,Ic1ccc(NCc2ccncc2)cc1,50 µg/mL
3,CCC(C)n1ncn(-c2ccc(N3CCN(c4ccc(OCC5COC(Cn6cncn6)(c6ccc(Cl)cc6Cl)O5)cc4)CC3)cc2)c1=O (centres undefined) [ITRACONAZOLE],< 0.015 µg/mL
4,Clc1ccc(NCc2ccco2)cc1Cl,25 µg/mL
5,Nc1nc(=O)[nH]cc1F [FLUCYTOSINE],3.9 µg/mL
6,C[C@@H](c1ncncc1F)[C@](O)(Cn1cncn1)c1ccc(F)cc1F [VORICONAZOLE],< 0.015 µg/mL

# System: Cryptococcus neoformans
# Assay: Antifungal activity against Cryptococcus neoformans IM 961951 by micro-broth dilution method
# Type: functional
row,SMILES,MIC
1,OC(Cn1cncn1)(Cn1cncn1)c1ccc(F)cc1F [FLUCONAZOLE],7.8 µg/mL
2,Ic1ccc(NCc2ccncc2)cc1,100 µg/mL
3,CCC(C)n1ncn(-c2ccc(N3CCN(c4ccc(OCC5COC(Cn6cncn6)(c6ccc(Cl)cc6Cl)O5)cc4)CC3)cc2)c1=O (centres undefined) [ITRACONAZOLE],< 0.015 µg/mL
4,Clc1ccc(NCc2ccco2)cc1Cl,100 µg/mL
5,Nc1nc(=O)[nH]cc1F [FLUCYTOSINE],7.8 µg/mL
6,C[C@@H](c1ncncc1F)[C@](O)(Cn1cncn1)c1ccc(F)cc1F [VORICONAZOLE],0.03 µg/mL
